Experiments:
bone marrow cells (BMMs) = experiment: Methylene blue uptake; format: cell-based, mouse; details: FIG. 5
Description: Bone marrow cells (BMMs) were prepared from the long bones of 7-9 week old BALB/c male mice. Primary BMMs were prepared by flushing mouse femurs and tibias with α-MEM. Cells were cultured in Petri dishes, in complete α-MEM, supplemented with 10% CMG14-12 culture supernatant, which served as a source of M-CSF. After 3 days of culture, plates were washed 3 to 4 times with PBS to remove non-adherent cells. Adherent cells were removed with trypsin-EDTA solution, centrifuged and resuspended in a fresh medium. Murine macrophage-like RAW264.7 cell line was maintained in RPMI 1640 medium supplemented with 10% fetal calf serum (FCS) in the presence of antibiotics (penicillin and streptomycin). Cells were cultured at 37° C. incubator in a humidified atmosphere with 5% CO2, and media were changed every other day. BMMs (7×10^3/well in α-MEM containing 10% FCS and supernatant from CMG14-12 [1:20]) or RAW264.7 cells (3×10^3/well in RPMI-1640 containing 10% FCS) were incubated in 96-well plates (0.2 ml/well). […] On day 3, medium was changed and on day 5, osteoclast formation was evaluated (see below).
Cells were seeded as for the osteoclast differentiation assay (see above). Monolayers were fixed and methylene blue uptake was measured as described [Goldman, R., and Bar-Shavit, Z. (1979) J. Natl. Cancer Inst. […]

[1] = tested on: osteoclast lineage cells (osteoclasts and their mononuclear precursors); experiment: RANKL-induced osteoclast differentiation (osteoclast number by TRAP staining, cell size by surface area measurement); format: cell-based, mouse; details: for osteoclast lineage cells size: phloretin 50 μM added for the last day, mean ± SEM of at least 50 cells
Description: Bone marrow cells (BMMs) were prepared from the long bones of 7-9 week old BALB/c male mice. Primary BMMs were prepared by flushing mouse femurs and tibias with α-MEM. Cells were cultured in Petri dishes, in complete α-MEM, supplemented with 10% CMG14-12 culture supernatant, which served as a source of M-CSF. After 3 days of culture, plates were washed 3 to 4 times with PBS to remove non-adherent cells. Adherent cells were removed with trypsin-EDTA solution, centrifuged and resuspended in a fresh medium. Murine macrophage-like RAW264.7 cell line was maintained in RPMI 1640 medium supplemented with 10% fetal calf serum (FCS) in the presence of antibiotics (penicillin and streptomycin). Cells were cultured at 37° C. incubator in a humidified atmosphere with 5% CO2, and media were changed every other day. BMMs (7×10^3/well in α-MEM containing 10% FCS and supernatant from CMG14-12 [1:20]) or RAW264.7 cells (3×10^3/well in RPMI-1640 containing 10% FCS) were incubated in 96-well plates (0.2 ml/well). To induce cells to differentiate into osteoclasts, bacterially-produced recombinant RANKL was added at the time of plating. On day 3, medium was changed and on day 5, osteoclast formation was evaluated (see below). A commercial kit (Cat. No. 387-A, Sigma) was used according to the manufacturer instructions. TRAP-positive cells containing three or more nuclei were scored as osteoclasts. The surface area occupied by osteoclasts and their precursors was quantified using a computerized image analysis system (Olympus BX50, DP50, software: ImagePro Plus, Media Cybernetics). In the following assay the significance of the activity of AQP-9 to osteoclast differentiation was determined.

For `O=C(CCc1ccc(O)cc1)c1c(O)cc(O)cc1O` [Phloretin, 2′,4′,6′-Trihydroxy-3-(4-hydroxyphenyl)-propiophenone], the “effect on methylene blue uptake” value (bone marrow cells (BMMs); RANKL-treated cells) was “marked inhibition”, the “effect on methylene blue uptake” value (bone marrow cells (BMMs); mononuclear precursors (BMMs grown in the absence of RANKL)) was “No effect” and the “osteoclast lineage cells size” value ([1]; +RANKL for 5 days) was 23722 ± 4351 μm^2. For the same molecule, the “effect on osteoclast number” value ([1]; +RANKL for 5 days, phloretin added for the last day, FIG. 4A-4D) was “dramatic reduction”, the “effect on osteoclast size” value ([1]; +RANKL for 5 days, phloretin added for the last day, FIG. 4A-4D, Table 3) was “dramatic reduction” and the “effect on number of the mononuclear precursors” value ([1]; cells not treated with RANKL) was “did not exhibit a significant effect”. For the same molecule, the “effect on size of the mononuclear precursors” value ([1]; cells not treated with RANKL) was “did not exhibit a significant effect” and the “osteoclast lineage cells size” value ([1]; −RANKL (mononuclear precursors)) was 267 ± 6 μm^2.
